Species: Mus musculus
Assay: Induction of glucose-triggered insulin secretion in BALB/c mouse islets of langerhans measured per islets incubated for 60 mins by ELISA analysis (reference value: 11.8 +/- 0.8 ng/hr)
Type: functional
Settings: 1 h

Going from COC(=O)[C@]1(C)CCC[C@@]2(C)C3=C(C)C(=O)O[C@@H](c4ccoc4)[C@@H]3[C@@H](OC(C)=O)[C@]12O to COC(=O)[C@]1(C)CCC[C@@]2(C)C3=C(C)C(=O)O[C@@H](C4=CC(=O)OC4O)[C@@H]3[C@@H](OC(C)=O)[C@]12O (stereo not given in full), the Activity rises from 9.3 ng/h to 16.4 ng/h.

Compared with CC(=O)O[C@H]1[C@@H]2[C@@H]([C@@H](C)C(=O)O[C@H]2c2ccoc2)[C@@]23CCC[C@@](C)(C(=O)OC2O)[C@@]13O (stereo not given in full), CC(=O)O[C@@H]1[C@H]2[C@H](c3ccoc3)OC(=O)[C@H](C)[C@@]2(O)[C@@]23CCC[C@@](C)(C(=O)OC2)[C@@]13O is lower in Activity: 16.6 ng/h for the first, 8 ng/h for the second.

Going from C[C@@H]1C(=O)O[C@@H](c2ccoc2)C[C@H]1[C@@]1(C)CCC[C@@]2(C)COC(=O)[C@@H]21 to C[C@H]1C(=O)O[C@@H](c2ccoc2)C[C@H]1[C@@]1(C)CCC[C@@]2(C)C(=O)OC[C@H]12, the Activity falls from 16.9 ng/h to 10.6 ng/h.

Going from C[C@@H]1C(=O)O[C@@]23COC(=O)[C@]2(C)CCC(=O)[C@@]3(C)[C@@H]1CC(=O)c1ccoc1 to C[C@H]1C(=O)O[C@@]23COC(=O)[C@]2(C)CCC(=O)[C@@]3(C)[C@@H]1CC(=O)c1ccoc1, the Activity rises from 16.3 ng/h to 18.4 ng/h.

First: C[C@@H]1C(=O)O[C@@]23CC[C@@]4(C)C(=O)OC[C@]45O[C@@](c4ccoc4)(C[C@H]1[C@]25C)O3
Second: C[C@@H]1C(=O)O[C@@]23CC[C@@]4(C)C(=O)OC[C@]45O[C@@](C4=CC(=O)OC4O)(C[C@H]1[C@]25C)O3 (stereo not given in full)
The Activity of the first is higher: 25.5 ng/h for the first, 20.8 ng/h for the second.

Compared with COC(=O)[C@]1(C)CCCC2=C1[C@@H](OC(C)=O)[C@H]1[C@H](c3ccoc3)OC(=O)[C@@H](C)[C@@]21O, COC(=O)[C@]1(C)CCC[C@@]2(C)[C@@]3(O)[C@@H]([C@@H](OC(C)=O)[C@@]21O)[C@H](c1ccoc1)OC(=O)[C@@H]3C is higher in Activity: 12.5 ng/h for the first, 24.7 ng/h for the second.

First: CC(=O)O[C@@H]1[C@@H]2C(=C(C)C(=O)O[C@H]2c2ccoc2)[C@]2(C)[C@@H]3CC[C@@](C)(C(=O)O3)[C@@H]12
Second: COC(=O)[C@]1(C)CC[C@@H](O)[C@@H]2C3=C(C)C(=O)O[C@@H](c4ccoc4)[C@@H]3[C@@H](OC(C)=O)[C@H]21
The Activity of the first is lower: 8 ng/h for the first, 14.6 ng/h for the second.

First: C[C@@H]1C(=O)O[C@@]23CC[C@@]4(C)C(=O)OC[C@]45O[C@@](C4=C[C@H](O)OC4=O)(C[C@H]1[C@]25C)O3
Second: C[C@@H]1C(=O)O[C@@]23CC[C@@]4(C)C(=O)OC[C@]45O[C@@](C4=C[C@@H](O)OC4=O)(C[C@H]1[C@]25C)O3
The Activity of the first is higher: 25.5 ng/h for the first, 18.3 ng/h for the second.

Compared with COC(=O)[C@]1(C)CCC[C@]2(C)[C@H]1[C@H](OC(C)=O)[C@H]1[C@H](c3ccoc3)OC(=O)[C@H](C)[C@]12O, COC(=O)[C@]1(C)CCC[C@@]2(C)[C@@]3(O)[C@@H]([C@@H](O)[C@@]21O)[C@H](c1ccoc1)OC(=O)[C@@H]3C is higher in Activity: 7.5 ng/h for the first, 8.2 ng/h for the second.

Compared with C[C@H]1C(=O)O[C@@]23COC(=O)[C@]2(C)CC[C@@]2(O)O[C@H](c4ccoc4)C[C@H]1[C@@]32C, CCCCNC(=O)NS(=O)(=O)c1ccc(C)cc1 [TOLBUTAMIDE] is lower in Activity: 30.7 ng/h for the first, 19.9 ng/h for the second.
